From patent US8962683B2, “Medium chain fatty acids applicable as anti-microbial agents” (Nutrition Sciences NV, priority 2004, dated 2015)

Columns and labels:
[1] = test system: Campylobacter jejuni VC 5, VC 6 and VC 7 strains; assay: Effect of MCFA on growth and survival of Campylobacter sp. isolated from poultry caecum; format: cell-based; details: medium pH 5.0; for relative antimicrobial effect on the tested Campylobacter strains: comparison between MCFA; for antimicrobial activity against Campylobacter strains (CFU/ml, FIGS. 1-9): micro-aerobic, tested concentrations, 0 and 180 minutes
Method: In this example, the MIC values of different MCFA against Campylobacter sp. isolated from poultry caecum were determined.
Three tenfold dilutions of a 10% suspension of three types of MCFA's (C6, C8 and C10) were prepared in distilled water. To obtain the desired concentrations, 1.5, 0.75 and 0.36 ml of these dilutions were pipetted in petri dishes and carefully mixed with 15 ml molten growth medium. A suitable fermentation medium was used with a pH of 5.0.
Isolated Campylobacter strains were grown in suitable fermentation medium and incubated at 37° C. under micro-aerobic conditions by evacuating 80% of the normal atmosphere and introducing a gas mixture of 8% CO2, 8% H2 and 84% N2 into the jar. Inocula were prepared by diluting the cultures in buffered saline to a density of 0.5 on the McFarland turbidity scale and diluted 40-fold before inoculating. Plates were seeded with inoculum. Control plates of media without the product were inoculated at the end of the procedure. All plates were incubated at 37° C. under appropriate atmosphere. Readings were performed after 48 h. Campylobacter was counted after incubation.
These figures represent the number of colony forming units (CFU)/ml of Campylobacter jejuni VC 5 strain (FIGS. 1, 4, 7), Campylobacter jejuni VC 6 strain (FIGS. 2, 5, 8), and Campylobacter jejuni VC 7 strain (FIGS. 3, 6, 9) at various concentrations of MCFA and at two different time points (0 and 180 minutes).

[2] = test system: E. coli K88; assay: Antimicrobial effect of C6, C8 and C10 on E. coli K88 in acidified feed suspension (gastric simulation); format: cell-based; details: 20% feed suspension pH 4.0
Method: In this example the anti-microbial activity of C6 and/or C8 and/or C10 MCFA against E. coli K88 was evaluated. The preparation of the test solution was as follows. to 1 kg feed (composition Table 6) an exactly determined quantity of E. coli K 88 was added. Subsequently, a suspension of 20% feed and 80% physiologic solution (0,85% saline) was created. To simulate the 20%-suspension in a gastric environment, a pH of 4.0 with 0.1 N HCl was established.
The acidified suspension was distributed in samples of 100 ml. Test substances were added in different concentrations as mentioned in table 7.
A microbial count at t=0 was executed. Samples were incubated during 3 h at 37° C. Samples were removed after 3 h and pH and microbial count were determined. The E. coli strains were counted on a Coli ID medium (Bio Mérieux, 42017).
The planned observations were: • a. Microbial count of control sample (blank) on t=0 • b. Microbial count of control sample (blank) and treatments on t=3 h. Table 8 depicts the calculated results proving the effectiveness of the anti-microbial effectiveness in the stomach of the different MCFA

[3] = 0.06% test substance, T = 3 h at 37° C.
[4] = 0.125% test substance, T = 3 h at 37° C.
[5] = 0.250% test substance, T = 3 h at 37° C.
[6] = 0.500% test substance, T = 3 h at 37° C.

Row | SMILES | relative antimicrobial effect on the tested Campylobacter strains [1] | antimicrobial activity against Campylobacter strains (CFU/ml, FIGS. 1-9) [1] | Microbial count ([2]; 0.06% test substance, T = 0 h) | Microbial count [2, 3] | Microbial count ([2]; 0.125% test substance, T = 0 h) | Microbial count [2, 4] | Microbial count ([2]; 0.250% test substance, T = 0 h) | Microbial count [2, 5] | Microbial count ([2]; 0.500% test substance, T = 0 h) | Microbial count [2, 6]
1 | CCCCCCCCCC(=O)O [C10, capric acid] | stronger antimicrobial effect compared to C8 | show antimicrobial activities | 6.964 Log (CFU/g) | 6.854 Log (CFU/g) | 6.927 Log (CFU/g) | 6.707 Log (CFU/g) | 6.966 Log (CFU/g) | 4.708 Log (CFU/g) | 6.816 Log (CFU/g) | Total inhibition
2 | CCCCCCCC(=O)O [C8, caprylic acid] | stronger antimicrobial effect compared to C6 | show antimicrobial activities | 5.649 Log (CFU/g) | Total inhibition | 5.415 Log (CFU/g) | Total inhibition | Total inhibition | Total inhibition | Total inhibition | Total inhibition
3 | CCCCCC(=O)O [C6, caproic acid] | – | show antimicrobial activities | 5.708 Log (CFU/g) | 4.160 Log (CFU/g) | 5.700 Log (CFU/g) | Total inhibition | 4.920 Log (CFU/g) | Total inhibition | Total inhibition | Total inhibition
